Assay results from ChEMBL document CHEMBL1201862, “PubChem BioAssay data set” (2004).
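Five compound concentrations were applied to cells in 96-well plates for 48 hours; endpoints were derived by simple linear interpolation of the resulting dose-response curve. GI50 marks 50% less growth.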 Calls of active or inactive are those of the source. Cut-off read from the data, not from the text of the source: active = GI50 up to about 1.1 µM and inactive = higher.

Key:
Experiment in all cases: inhibition of tumour cell growth, NCI panel, 48 h
OVCAR-3 = system: OVCAR-3
TK-10 = system: TK-10
M19-MEL = system: M19-MEL
EKVX = system: EKVX
HCC 2998 = system: HCC 2998
UO-31 = system: UO-31
M14 = system: M14
DLD-1 = system: DLD-1
KM-20L2 = system: KM-20L2
NCI-H522 = system: NCI-H522
786-0 = system: 786-0
DMS-114 = system: DMS-114
LXFL 529 = system: LXFL 529
HL-60 = system: HL-60
A498 = system: A498
UACC-62 = system: UACC-62

Measured: GI50

COc1cc2cc(OC(C)=O)c3cc4c(cc3c2c(OC)c1OC)OCO4
inactive: OVCAR-3 > 100 µM | TK-10 > 100 µM | M19-MEL > 100 µM | EKVX > 100 µM | HCC 2998 > 100 µM | UO-31 > 100 µM | M14 > 100 µM | DLD-1 > 100 µM | KM-20L2 > 100 µM | NCI-H522 > 100 µM | 786-0 > 100 µM | DMS-114 > 100 µM | LXFL 529 > 100 µM | HL-60 > 100 µM | A498 > 100 µM

CCOc1ccccc1N1C(=O)C(=O)C(c2nc3ccccc3o2)/C(=N\N)C1=O (centres undefined)
inactive: OVCAR-3 > 100 µM | TK-10 56.5 µM | M19-MEL > 100 µM | EKVX > 100 µM | UACC-62 > 100 µM | HCC 2998 > 100 µM | UO-31 31.2 µM | M14 > 100 µM | DLD-1 > 100 µM | KM-20L2 > 100 µM | NCI-H522 > 100 µM | 786-0 > 100 µM | DMS-114 > 100 µM | LXFL 529 > 100 µM | HL-60 > 100 µM | A498 > 100 µM

O=c1[nH]cnc(NC2C=C(CO)C(O)C2O)c1[N+](=O)[O-] (centres undefined)
inactive: OVCAR-3 > 100 µM | TK-10 > 100 µM | M19-MEL > 76.6 µM | EKVX > 100 µM | UACC-62 > 100 µM | HCC 2998 > 100 µM | UO-31 > 100 µM | M14 > 100 µM | DLD-1 > 58.6 µM | KM-20L2 > 100 µM | NCI-H522 > 100 µM | 786-0 > 46.2 µM | DMS-114 > 51.3 µM | LXFL 529 > 100 µM | HL-60 > 37.2 µM | A498 > 100 µM

CC1(C=O)C(=O)CCC2(C)C3CC(=O)OC3CCC12 (centres undefined)
inactive: OVCAR-3 > 100 µM | TK-10 > 100 µM | M19-MEL > 100 µM | EKVX > 100 µM | UACC-62 > 100 µM | HCC 2998 > 100 µM | UO-31 > 100 µM | M14 > 100 µM | DLD-1 > 100 µM | KM-20L2 > 100 µM | NCI-H522 > 100 µM | 786-0 > 100 µM | DMS-114 > 100 µM | LXFL 529 > 100 µM | HL-60 > 100 µM

CN(C)CCNC(=O)c1cccc2ncc(-c3ccccc3)nc12
inactive: OVCAR-3 19.5 µM | TK-10 6.93 µM | M19-MEL 14.2 µM | EKVX 13.3 µM | UACC-62 13.8 µM | HCC 2998 9.59 µM | UO-31 8.89 µM | M14 13.9 µM | DLD-1 5.45 µM | KM-20L2 3.81 µM | NCI-H522 5.78 µM | 786-0 10 µM | DMS-114 12.8 µM | LXFL 529 6.81 µM | HL-60 14.4 µM | A498 6.15 µM

CCC(=O)N1C(=S)SC[C@H]1C(=O)OC
inactive: OVCAR-3 > 100 µM | TK-10 > 100 µM | M19-MEL > 100 µM | EKVX > 100 µM | UACC-62 > 100 µM | HCC 2998 > 100 µM | UO-31 > 100 µM | M14 > 100 µM | DLD-1 > 100 µM | KM-20L2 > 100 µM | NCI-H522 > 100 µM | 786-0 > 100 µM | DMS-114 > 100 µM | LXFL 529 > 100 µM | HL-60 > 100 µM | A498 > 100 µM

COC(=O)C1C(=O)CC2CCCCC21 (centres undefined)
inactive: OVCAR-3 > 100 µM | TK-10 > 100 µM | M19-MEL > 100 µM | UACC-62 > 100 µM | HCC 2998 > 100 µM | UO-31 > 100 µM | M14 > 100 µM | DLD-1 > 100 µM | KM-20L2 > 100 µM | NCI-H522 > 100 µM | 786-0 > 100 µM | DMS-114 > 100 µM | LXFL 529 > 100 µM | HL-60 > 100 µM | A498 > 100 µM

CN(/N=C/c1cccc2cccnc12)c1c([N+](=O)[O-])cc([N+](=O)[O-])cc1[N+](=O)[O-]
inactive: OVCAR-3 > 100 µM | TK-10 > 100 µM | M19-MEL > 100 µM | EKVX > 100 µM | UACC-62 > 100 µM | HCC 2998 > 100 µM | M14 > 100 µM | DLD-1 > 100 µM | KM-20L2 > 100 µM | 786-0 > 100 µM | DMS-114 6.52 µM | LXFL 529 > 100 µM | HL-60 5.82 µM | A498 25.5 µM

CCOP1(=O)C=C(C)C(Cl)=C(C)C1 (centres undefined)
inactive: OVCAR-3 37.3 µM | TK-10 41.4 µM | M19-MEL 21.1 µM | EKVX > 100 µM | UACC-62 14.9 µM | HCC 2998 80.2 µM | UO-31 35.3 µM | M14 17.1 µM | DLD-1 25.9 µM | KM-20L2 32.7 µM | NCI-H522 13.9 µM | 786-0 28.3 µM | DMS-114 17.5 µM | LXFL 529 17.3 µM | HL-60 19.1 µM

Cc1ccccc1NC(=O)C1C(=O)N(c2ccccc2C)C(=O)/C1=N\N (centres undefined)
inactive: OVCAR-3 > 100 µM | M19-MEL > 100 µM | EKVX > 100 µM | UACC-62 > 100 µM | HCC 2998 > 100 µM | UO-31 > 100 µM | M14 > 100 µM | DLD-1 > 100 µM | KM-20L2 > 100 µM | NCI-H522 > 100 µM | 786-0 > 100 µM | DMS-114 > 100 µM | LXFL 529 > 100 µM | HL-60 > 100 µM | A498 > 100 µM

Cc1cccc(C(C)(C)C)c1NC(=O)C(=O)C(c1cnc2ccccc2n1)[N+](=O)[O-] (centres undefined)
inactive: TK-10 > 100 µM | M19-MEL > 100 µM | EKVX > 100 µM | UACC-62 > 100 µM | HCC 2998 > 100 µM | UO-31 > 100 µM | M14 > 100 µM | DLD-1 > 100 µM | KM-20L2 > 100 µM | NCI-H522 38.5 µM | 786-0 > 100 µM | DMS-114 > 100 µM | LXFL 529 > 100 µM | HL-60 65.3 µM | A498 > 100 µM

CCOC(=O)C(=O)Nc1ccc(C)c(C)c1
inactive: TK-10 > 100 µM | M19-MEL > 67.5 µM | EKVX > 100 µM | UACC-62 > 100 µM | HCC 2998 > 100 µM | UO-31 > 100 µM | M14 > 100 µM | DLD-1 > 100 µM | KM-20L2 > 100 µM | NCI-H522 > 100 µM | 786-0 > 100 µM | DMS-114 > 40.9 µM | LXFL 529 > 86.9 µM | HL-60 > 54.8 µM | A498 > 100 µM

O=C(/C=C/c1ccccc1O)c1cccc2ccccc12
inactive: OVCAR-3 30.2 µM | TK-10 > 100 µM | M19-MEL > 100 µM | EKVX > 87.9 µM | UACC-62 > 100 µM | HCC 2998 > 74.1 µM | UO-31 > 47.4 µM | M14 > 100 µM | DLD-1 37.3 µM | KM-20L2 > 100 µM | NCI-H522 51.9 µM | 786-0 58.7 µM | DMS-114 21.4 µM | LXFL 529 36.2 µM | HL-60 27.9 µM | A498 > 100 µM

CN(C)c1n/c(=N/c2ncn[nH]2)ss1
inactive: TK-10 > 100 µM | M19-MEL > 100 µM | EKVX > 100 µM | UACC-62 > 100 µM | HCC 2998 > 100 µM | UO-31 > 100 µM | M14 > 100 µM | DLD-1 > 100 µM | KM-20L2 > 100 µM | NCI-H522 > 100 µM | 786-0 > 100 µM | DMS-114 > 100 µM | LXFL 529 > 100 µM | HL-60 > 100 µM | A498 > 100 µM

O=C1OC2(c3ccccc3Oc3ccccc32)c2ccccc21
inactive: OVCAR-3 > 100 µM | TK-10 > 100 µM | M19-MEL > 100 µM | EKVX > 100 µM | UACC-62 > 100 µM | HCC 2998 > 100 µM | UO-31 > 100 µM | M14 > 100 µM | DLD-1 > 100 µM | KM-20L2 > 100 µM | NCI-H522 69.8 µM | 786-0 > 100 µM | DMS-114 > 100 µM | LXFL 529 > 100 µM | HL-60 99.8 µM | A498 > 100 µM

OC(c1cc2ccccc2[nH]1)C(O)(c1cc2ccccc2[nH]1)c1cc2ccccc2[nH]1 (centres undefined)
inactive: OVCAR-3 4.28 µM | TK-10 40.1 µM | M19-MEL 7.06 µM | EKVX 12.3 µM | UACC-62 5.97 µM | HCC 2998 8.09 µM | DLD-1 11 µM | KM-20L2 10.1 µM | NCI-H522 8.61 µM | 786-0 6.89 µM | DMS-114 7.31 µM | LXFL 529 10 µM | HL-60 7.91 µM

O=C1/C(=C/c2ccc(Br)cc2)CCC/C1=C\c1ccc(Br)cc1
inactive: OVCAR-3 4.08 µM | TK-10 27.5 µM | M19-MEL 4.3 µM | EKVX 24.2 µM | UACC-62 15.1 µM | HCC 2998 2.31 µM | UO-31 12.3 µM | M14 3.03 µM | DLD-1 5.04 µM | KM-20L2 5.22 µM | NCI-H522 13.6 µM | 786-0 11.9 µM | DMS-114 13.2 µM | LXFL 529 3.82 µM | HL-60 3.18 µM | A498 5.32 µM

CCC1(c2ccncc2)CCC(=O)NC1=O (centres undefined) [ROGLETIMIDE]
inactive: OVCAR-3 > 100 µM | TK-10 > 100 µM | M19-MEL > 100 µM | EKVX > 100 µM | UACC-62 > 100 µM | HCC 2998 > 100 µM | UO-31 > 100 µM | M14 > 100 µM | DLD-1 > 100 µM | KM-20L2 > 100 µM | 786-0 > 100 µM | DMS-114 > 100 µM | LXFL 529 > 100 µM | HL-60 > 100 µM | A498 > 100 µM
